Literature values, collected in US20240238224A1, “COMPOSITION FOR LOCAL ANAESTHESIA AND USES THEREOF” (priority 2023, published 2024).

Tested on: test teeth

SMILES | effectiveness compared with tetracaine (reported in U.S. Pat. No. 8,580,282 B2, cols. 7, 13, 14) | effectiveness for inducing pulpal anesthesia, 4% versus 3% tetracaine (non-injected formulation with vasoconstrictor, reported in U.S. Pat. No. 8,580,282 B2)
CCCCN1CCCCC1C(=O)Nc1c(C)cccc1C (centres unmarked) [bupivacaine, 1-butyl-N-(2,6-dimethylphenyl)piperidine-2-carboxamide] | not as effective as tetracaine | –
CCCCNc1ccc(C(=O)OCCN(C)C)cc1 [tetracaine, 2-(dimethylamino)ethyl 4-(butylamino)benzoate] | – | 4% tetracaine is less effective than 3%
